Experimental data from patent US8309580B2, “Heterocyclic compound” (Takeda Pharmaceutical Company Limited, priority 2007, dated 2012).
pIC50: −log10 of the molar value.

Assays:
[1] = biological target: human-type glucagon receptor (Homo sapiens, UniProt P47871); assay: Glucagon binding inhibitory activity ([125I]-glucagon binding to glucagon receptor membrane protein); conditions: glucagon receptor membrane protein from FreeStyle CHO cells, 90 min at room temperature
Method: The glucagon binding inhibitory action of the compound of the present invention was evaluated by the following method.
(1) Preparation of Glucagon Receptor Membrane Protein
A human-type glucagon receptor was expressed using FreeStyle CHO Expression System (Invitrogen). A transient expression in FreeStyle CHO cell was performed using a human-type glucagon expression plasmid DNA and according to the manual attached to the FreeStyle CHO Expression System. The above-mentioned DNA was transfected and the cultured with shaking for 2 days (37° C., 8% CO2, 125 rpm). 2400 ml of culture medium was centrifuged at 2,000 rpm for 10 min and the cells were collected. The collected cells were washed with PBS, suspended in homogenate buffer [10 mM NaHCO3 (pH 7.4), 1 mM EDTA, Complete EDTA-free (Roche, 1 tablet/50 mL)] and disrupted by polytron cell disrupter (Kinematica AG). Disruption solution was centrifuged at 2,000 rpm for 10 min and the supernatant was collected. The supernatant was centrifuged at 35,000 rpm for 60 min and the precipitate was suspended in a buffer [20 mM Tris-HCl (pH 7.4), 5 mM EDTA, Complete EDTA-free (Roche, 1 tablet/50 mL)] to give a glucagon receptor membrane protein (452 mg).
(2) Measurement of Glucagon Binding Inhibitory Activity
To each well of 96 well plate (Corning Incorporated) were added 25 μl of test compound (containing 0.4% DMSO), 50 μl of glucagon receptor membrane protein diluted with reaction buffer [50 mM Tris-HCl (pH 7.4), 5 mM EGTA, 5 mM magnesium chloride, 0.1% BSA, 0.005% Tween20] to 100 μg/ml, and 25 μl of radioactive labeled glucagon ([^125I]-Receptor Grade Glucagon; Perkin Elmer Inc.) diluted with the reaction buffer to 200 pM, whereby the reaction was started. The plate was stood for 90 min at room temperature. The reaction solution was transferred from the reaction plate to a 96 well unifilter GF/C plate (Perkin Elmer Inc.) using a cell harvester (Perkin Elmer Inc.) and the membrane fraction was collected on the filter by suction. The filter was presoaked in 2 mg/ml of polyethyleneimine to prevent non-specific adsorption of labeled ligand. The filter was washed 4 times with a reaction buffer and dried for 2 hr at 42° C. To each well was added 25 μl of scintillator (MicroScint0; Perkin Elmer Inc.), and the fluorescence amount was measured using a microplate scintillation counter (TopCount NXT™; Perkin Elmer Inc.). The glucagon binding inhibitory activity (IC50 value) of the well added with the test compound (containing 0.4% DMSO) was calculated, using the reaction rate of the well added only with 0.4% DMSO as 0% inhibitory rate, and the reaction rate of the well added with non-labeled glucagon (final concentration 1 μM) as 100% inhibitory rate.

[2] = test system: glucagon-induced blood glucose increase; assay: Test of glucagon-induced blood glucose increase-suppressive action in mouse; format: in vivo; conditions: male ICR mouse, fasted; test compound 10 mg/kg orally 60 min before s.c. glucagon 10 μg/kg with octreotide; blood glucose 30 min after glucagon
Method: Test of Glucagon-Induced Blood Glucose Increase-Suppressive Action in Mouse
Full feeding ICR mouse (male, 7-week-old) was fasted, and 0.5% methylcellulose suspension (compound-administration group, 8 mice per group) containing a test compound (10 mg/kg body weight) or 0.5% methylcellulose suspension (compound-non-administration group, 8 mice per group) was orally administered. After 60 minutes, glucagon (10 μg/kg body weight, Novo Nordisk Pharma Ltd.) containing octreotide (100 μg/kg body weight, Novo Nordisk Pharma Ltd.) was subcutaneously administered. After 30 minutes from the glucagon administration, blood samples were collected from the tail vein of the mouse, and the blood glucose level was measured by a glucose self-test kit ACCU-CHEK (Roche Diagnostics K.K.). As a non-treatment group (8 mice per group), the blood glucose level of mouse of the compound-non-administration group, which was free of glucagon administration, was measured in the same manner as in the above.
The differences between the average blood glucose level of the compound-non-administration group, the average blood glucose level of the compound administration group, and the average blood glucose level of the non-treatment group were each calculated, and the percentage of the “difference between the blood glucose level of the compound administration group and that of the non-treatment group” relative to the “difference between the blood glucose level of the compound-non-administration group and that of the non-treatment group” as 100% was determined as an “increasing rate of blood glucose (% of control)”.

human-type glucagon receptor, sequence (P47871 26-477): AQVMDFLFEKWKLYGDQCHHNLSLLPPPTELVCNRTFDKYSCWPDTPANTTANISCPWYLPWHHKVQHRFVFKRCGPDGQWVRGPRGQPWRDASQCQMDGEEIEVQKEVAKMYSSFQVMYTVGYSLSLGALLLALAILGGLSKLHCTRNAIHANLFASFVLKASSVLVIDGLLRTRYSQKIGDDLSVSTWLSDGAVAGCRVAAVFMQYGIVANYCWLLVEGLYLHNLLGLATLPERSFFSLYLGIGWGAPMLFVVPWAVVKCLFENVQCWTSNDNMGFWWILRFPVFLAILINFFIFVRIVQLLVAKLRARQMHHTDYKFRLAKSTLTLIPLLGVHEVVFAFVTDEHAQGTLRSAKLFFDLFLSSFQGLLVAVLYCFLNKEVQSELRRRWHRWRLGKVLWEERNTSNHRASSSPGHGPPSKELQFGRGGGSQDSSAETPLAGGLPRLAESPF

Row | pIC50 [1] | Compound | increasing rate of blood glucose (% of control) [2]
1 | 6.19 | Cc1sc(-c2ccccc2)cc1C(Nc1ccc(C(=O)N(C)CCC(=O)O)nc1)C1CCCCC1 (centres unmarked) [Ex. 311, 3-{[(5-{[cyclohexyl(2-methyl-5-phenylthiophen-3-yl)methyl]amino}pyridin-2-yl)carbonyl](methyl)amino}propanoic acid] | 
2 | 6.96 | Cc1oc(-c2ccc(OC(F)(F)F)cc2)cc1C(Nc1ccc(C(=O)NCCC(=O)O)cc1)C1CCCCC1 (centres unmarked) [Ex. 53, 3-({4-[(cyclohexyl{2-methyl-5-[4-(trifluoromethoxy)phenyl]-3-furyl}methyl)amino]benzoyl}amino)propanoic acid] | 
3 | 6.60 | CCc1oc(-c2ccc(C(F)(F)F)cc2)cc1C(Nc1ccc(C(=O)N(C)CCC(=O)O)cc1)C1CCCCC1 (centres unmarked) [Ex. 10, 3-[{4-[(cyclohexyl{2-ethyl-5-[4-(trifluoromethyl)phenyl]-3-furyl}methyl)amino]benzoyl}(methyl)amino]propanoic acid] | 
4 | 7.01 | CCc1sc(C2CCCCC2)cc1C(Nc1ccc(C(=O)NCCC(=O)O)cc1)C1CCCCC1 (centres unmarked) [Ex. 79, 3-{[(4-{[cyclohexyl(5-cyclohexyl-2-ethylthiophen-3-yl)methyl]amino}phenyl)carbonyl]amino}propanoic acid] | 
5 |  | COc1ccc(-c2cc(C(CC(C)C)Nc3ccc(C(=O)N(C)CCC(=O)O)cc3)c(C)o2)cn1 (centres unmarked) [Example 149, 3-[{[4-({1-[5-(6-methoxypyridin-3-yl)-2-methylfuran-3-yl]-3-methylbutyl}amino)phenyl]carbonyl}(methyl)amino]propanoic acid] | 6.8 % of control
6 |  | CCc1oc(-c2ccc(C(F)(F)F)cc2)cc1C(Nc1ccc(C(=O)N(C)CCC(=O)O)cc1)C1CCCCC1 (centres unmarked) [Ex. 87, 3-[({4-[(cyclohexyl{2-ethyl-5-[4-(trifluoromethyl)phenyl]furan-3-yl}methyl)amino]phenyl}carbonyl)(methyl)amino]propanoic acid] | 6.5 % of control
7 | 6.40 | Cc1oc(-c2ccc(F)cc2)cc1C(Nc1ccc(C(=O)N(C)CCC(=O)O)nc1)C1CCCCC1 (centres unmarked) [Ex. 318, 3-[{[5-({cyclohexyl[5-(4-fluorophenyl)-2-methylfuran-3-yl]methyl}amino)pyridin-2-yl]carbonyl}(methyl)amino]propanoic acid] | 
8 | 7.24 | CCc1sc(-c2ccc(C(F)(F)F)cc2)cc1C(Nc1ccc(C(=O)NCCC(=O)O)cc1)C1CCCCC1 (centres unmarked) [Ex. 71, 3-[({4-[(cyclohexyl{2-ethyl-5-[4-(trifluoromethyl)phenyl]thiophen-3-yl}methyl)amino]phenyl}carbonyl)amino]propanoic acid] | 
9 | 6.74 | COc1ccc(-c2cc(C(Nc3ccc(C(=O)N(C)CCC(=O)O)cc3)C3CCCCC3)c(C)o2)cn1 (single isomer, unassigned) [Ex. 166, 3-[{[4-({cyclohexyl[5-(6-methoxypyridin-3-yl)-2-methylfuran-3-yl]methyl}amino)phenyl]carbonyl}(methyl)amino]propanoic acid] | 
10 | 6.72 | CCc1sc(CC(C)C)cc1C(Nc1ccc(C(=O)NCCC(=O)O)cc1)C1CCCCC1 (centres unmarked) [Ex. 83, 3-({[4-({cyclohexyl[2-ethyl-5-(2-methylpropyl)thiophen-3-yl]methyl}amino)phenyl]carbonyl}amino)propanoic acid] | 
11 |  | COCc1oc(-c2ccc(OC)nc2)cc1C(Nc1ccc(C(=O)N(C)CCC(=O)O)cc1)C1CCCCC1 (centres unmarked) [Example 147, 3-[{[4-({cyclohexyl[2-(methoxymethyl)-5-(6-methoxypyridin-3-yl)furan-3-yl]methyl}amino)phenyl]carbonyl}(methyl)amino]propanoic acid] | 8.6 % of control
12 | 6.54 | COCc1oc(-c2ccc(F)cc2)cc1C(Nc1ccc(C(=O)N(C)CCC(=O)O)cc1)C1CCCCC1 (centres unmarked) [Ex. 314, 3-[{[4-({cyclohexyl[5-(4-fluorophenyl)-2-(methoxymethyl)furan-3-yl]methyl}amino)phenyl]carbonyl}(methyl)amino]propanoic acid] | 
13 | 6.64 | COc1ccc(-c2cc(C(CC(C)C)Nc3ccc(C(=O)N(C)CCC(=O)O)cc3)c(C)o2)cn1 (single isomer, unassigned) [Ex. 319, 3-[{[4-({1-[5-(6-methoxypyridin-3-yl)-2-methylfuran-3-yl]-3-methylbutyl}amino)phenyl]carbonyl}(methyl)amino]propanoic acid] | 

Row | Compound | pIC50 [1] | increasing rate of blood glucose (% of control) [2]
14 | CCc1oc(-c2ccc(C(F)(F)F)cc2)cc1C(CC(C)C)Oc1ccc(C(=O)NCCC(=O)O)cc1 (centres unmarked) [Ex. 5, 3-{[4-(1-{2-ethyl-5-[4-(trifluoromethyl)phenyl]-3-furyl}-3-methylbutoxy)benzoyl]amino}propanoic acid] | 6.20 | 
